Key:
Assay type in all cases: in vivo
[1] = system: upland rice (Oryza sp., var.Tebonnet, RICE); test: Post-emerge greenhouse test, crop damage rating; conditions: 1000 g al/ha, 14 days after application
Source text: (§1) A standard greenhouse herbicide activity screening system was used to evaluate the herbicidal efficacy and crop safety of these test compounds. Six broadleaf weed species including redroot pigweed (Amaranthus retroflexus, AMARE), velvetleaf (Abutilon theophrasti, ABUTH), sicklepod (Cassia obtusifolia, CASOB), ivyleaf morningglory (Ipomoea hederacea, IPOHE), lambsquarters (Chenopodium album, CHEAL) and common ragweed (Ambrosia artemisiifolia L., AMBEL) were used as test species. Four grass weed species including green foxtail (Setaria viridis, SETVI), barnyardgrass (Echinochloa crusgalli, ECHCG), Johnsongrass (Sorghum halepense, SORHA), and large crabgrass (Digitaria sanguinalis, DIGSA) were also used. In addition, three crop species, field corn (Zea mays L., var. Dekalb 535, CORN), soybean (Glycine max L., var. Pella 86, SOY), and upland rice (Oryza sp., var.Tebonnet, RICE) were included.
(§2) All test compounds were dissolved in acetone and applied to the test units in a volume of 187 l/ha. Test materials were applied at rates ranging from 125 g ai/ha to 1000 g ai/ha using a track sprayer equipped with a TJ8001E even flow flat fan spray nozzle. Plants were arranged on a shelf so that the top of the canopy (post-emerge) or top of the soil surface (pre-emerge) was 40-45 cm below the nozzle. Pressurized air was used to force the test solution through the nozzle as it was mechanically advanced (via electrically driven chain drive) over the top of all test plants/pots. This application simulates a typical commercial field herbicide application.
(§3) In the post-emerge test, a commercial non-ionic surfactant was also included (0.25% v/v) to enhance wetting of the leaf surfaces Qf target plants at rates ranging from 63 g ai/ha to 1000 g ai/ha. For post-emerge tests, seeds were planted 8-21 days prior to the test to allow emergence and good foliage development prior to application of the test substances. At the time of the post-emerge application, plants of all species were usually at the 2-3 leaf stage of development. Post-emerge test units were always bottom-watered.
(§4) At 14 days after application of the test materials, phytotoxicity ratings were recorded. A rating scale of 0-100 was used as previously described in Research Methods in Weed Science, 2nd edition, B. Truelove, Ed., Southern Weed Science Society, Auburn University, Auburn, Ala., 1977. Briefly, “0” corresponds to no damage and “100” corresponds to complete death of all plants in the test unit. This scale was used both to determine efficacy against weed species and damage to crop species. Herbicide activity data for various compounds of this invention, which are shown by compound number in Tables 1-9, are shown in Tables 13 and 14.

[2] = system: field corn (Zea mays L., var. Dekalb 535, CORN); test: Post-emerge greenhouse test, crop damage rating; conditions: 1000 g al/ha, 14 days after application
Source text: as §1, §2, §3, §4

[3] = system: velvetleaf (Abutilon theophrasti, ABUTH); test: Post-emerge greenhouse herbicide test, phytotoxicity rating; conditions: 1000 g al/ha, 14 days after application
Source text: as §1, §2, §3, §4

[4] = system: sicklepod (Cassia obtusifolia, CASOB); test: as above; conditions: 1000 g al/ha, 14 days after application
Source text: as §1, §2, §3, §4

[5] = system: Johnsongrass (Sorghum halepense, SORHA); test: as above; conditions: 1000 g al/ha, 14 days after application
Source text: as §1, §2, §3, §4

[6] = system: redroot pigweed (Amaranthus retroflexus, AMARE); test: as above; conditions: 1000 g al/ha, 14 days after application
Source text: as §1, §2, §3, §4

[7] = system: green foxtail (Setaria viridis, SETVI); test: as above; conditions: 1000 g al/ha, 14 days after application
Source text: as §1, §2, §3, §4

[8] = system: ivyleaf morningglory (Ipomoea hederacea, IPOHE); test: as above; conditions: 1000 g al/ha, 14 days after application
Source text: as §1, §2, §3, §4

[9] = system: barnyardgrass (Echinochloa crusgalli, ECHCG); test: as above; conditions: 1000 g al/ha, 14 days after application
Source text: as §1, §2, §3, §4

[10] = system: large crabgrass (Digitaria sanguinalis, DIGSA); test: as above; conditions: 1000 g al/ha, 14 days after application
Source text: as §1, §2, §3, §4

[11] = system: lambsquarters (Chenopodium album, CHEAL); test: as above; conditions: 1000 g al/ha, 14 days after application
Source text: as §1, §2, §3, §4

[12] = system: velvetleaf (Abutilon theophrasti, ABUTH); test: Pre-emerge greenhouse herbicide test, phytotoxicity rating; conditions: 1000 g ai/ha, 14 days after application, rating scale 0-100
Source text: as §1
(§5) All plants were grown in 10 cm square plastic pots which were filled with a sandy loam soil mix. For preemerge tests, seeds were planted one day prior to application of the test compounds. Immediately after application, test units of the pre-emerge applications were watered at the soil surface to incorporate the test materials. Subsequently, these test units were bottom-watered.
as §2, §4

[13] = system: sicklepod (Cassia obtusifolia, CASOB); test: as above; conditions: 1000 g ai/ha, 14 days after application, rating scale 0-100
Source text: as §1, §5, §2, §4

[14] = system: Johnsongrass (Sorghum halepense, SORHA); test: as above; conditions: 1000 g ai/ha, 14 days after application, rating scale 0-100
Source text: as §1, §5, §2, §4

[15] = system: redroot pigweed (Amaranthus retroflexus, AMARE); test: as above; conditions: 1000 g ai/ha, 14 days after application, rating scale 0-100
Source text: as §1, §5, §2, §4

[16] = system: green foxtail (Setaria viridis, SETVI); test: as above; conditions: 1000 g ai/ha, 14 days after application, rating scale 0-100
Source text: as §1, §5, §2, §4

[17] = system: ivyleaf morningglory (Ipomoea hederacea, IPOHE); test: as above; conditions: 1000 g ai/ha, 14 days after application, rating scale 0-100
Source text: as §1, §5, §2, §4

[18] = system: barnyardgrass (Echinochloa crusgalli, ECHCG); test: as above; conditions: 1000 g ai/ha, 14 days after application, rating scale 0-100
Source text: as §1, §5, §2, §4

[19] = system: large crabgrass (Digitaria sanguinalis, DIGSA); test: as above; conditions: 1000 g ai/ha, 14 days after application, rating scale 0-100
Source text: as §1, §5, §2, §4

[20] = system: lambsquarters (Chenopodium album, CHEAL); test: as above; conditions: 1000 g ai/ha, 14 days after application, rating scale 0-100
Source text: as §1, §5, §2, §4

[21] = system: upland rice (Oryza sp., var.Tebonnet, RICE); test: Pre-emerge greenhouse test, crop damage rating; conditions: 1000 g ai/ha, 14 days after application, rating scale 0-100
Source text: as §1, §5, §2, §4

[22] = system: field corn (Zea mays L., var. Dekalb 535, CORN); test: Pre-emerge greenhouse test, crop damage rating; conditions: 1000 g ai/ha, 14 days after application, rating scale 0-100
Source text: as §1, §5, §2, §4

[23] = system: soybean (Glycine max L., var. Pella 86, SOY); test: Pre-emerge greenhouse test, crop damage rating; conditions: 1000 g ai/ha, 14 days after application, rating scale 0-100
Source text: as §1, §5, §2, §4

[24] = system: soybean (Glycine max L., var. Pella 86, SOY); test: Post-emerge greenhouse test, crop damage rating; conditions: 1000 g al/ha, 14 days after application
Source text: as §1, §2, §3, §4

Row | SMILES | RICE crop damage rating (0-100) [1] | CORN crop damage rating (0-100) [2] | ABUTH phytotoxicity rating (0-100) [3] | CASOB phytotoxicity rating (0-100) [4] | SORHA phytotoxicity rating (0-100) [5] | AMARE phytotoxicity rating (0-100) [6] | SETVI phytotoxicity rating (0-100) [7] | IPOHE phytotoxicity rating (0-100) [8] | ECHCG phytotoxicity rating (0-100) [9] | DIGSA phytotoxicity rating (0-100) [10] | CHEAL phytotoxicity rating (0-100) [11] | phytotoxicity rating ABUTH [12] | phytotoxicity rating CASOB [13] | phytotoxicity rating SORHA [14] | phytotoxicity rating AMARE [15] | phytotoxicity rating SETVI [16] | phytotoxicity rating IPOHE [17] | phytotoxicity rating ECHCG [18] | phytotoxicity rating DIGSA [19] | phytotoxicity rating CHEAL [20] | other results
1 | CCOC(=O)C(C)Oc1ccc(Oc2cc(-n3c(=O)cc4n(c3=O)CCC4)c(F)cc2Cl)cc1 (stereo not drawn) [Compound 5-6] | 60 | 80 | 100 | 40 | 95 | 90 | 50 | 100 | 95 | 40 | 100 | 100 | 40 | 50 | 100 | 100 | 100 | 70 | 70 | 100 | crop damage rating RICE [21]: 80; crop damage rating CORN [22]: 40; crop damage rating SOY [23]: 60; SOY crop damage rating (0-100) [24]: 80
2 | O=c1cc2n(c(=O)n1-c1cc(Oc3ncccc3[N+](=O)[O-])c(Cl)cc1F)CCC2 [Compound 5-8] | 0 | 0 | 100 | 30 | 0 | 40 | 10 | 80 | 0 | 0 | 60 | 100 | 0 | 95 | 100 | 95 | 80 | 85 | 100 | 100 | crop damage rating RICE [21]: 50; crop damage rating CORN [22]: 15; crop damage rating SOY [23]: 50; SOY crop damage rating (0-100) [24]: 20
